# Data published in patent US7247641B2, “Compounds, derivatives, compositions, preparation and uses” (MGI GP, Inc., priority 2001, dated 2007).
# pIC50: −log10 of the molar value.
# Target: T1, purified recombinant human PARP (Homo sapiens, UniProt P09874)
# T1 construct: purchased Trevigan (Gaithersburg, Md.)
# Assay: PARP enzyme assay, [3H]NAD incorporation, IC50
# Type: biochemical
# Details: not given
# Procedure: The reaction is initiated by incubating the mixture at 25° C. After 15 minutes of incubation, the reaction is terminated by adding 500 microliters of ice cold 20% (w/v) trichloroacetic acid. The precipitate formed is transferred onto a glass fiber filter (Packard Unifilter-GF/B) and washed three times with ethanol. After the filter is dried, the radioactivity is determined by scintillation counting.
# T1 sequence (P09874 whole entry): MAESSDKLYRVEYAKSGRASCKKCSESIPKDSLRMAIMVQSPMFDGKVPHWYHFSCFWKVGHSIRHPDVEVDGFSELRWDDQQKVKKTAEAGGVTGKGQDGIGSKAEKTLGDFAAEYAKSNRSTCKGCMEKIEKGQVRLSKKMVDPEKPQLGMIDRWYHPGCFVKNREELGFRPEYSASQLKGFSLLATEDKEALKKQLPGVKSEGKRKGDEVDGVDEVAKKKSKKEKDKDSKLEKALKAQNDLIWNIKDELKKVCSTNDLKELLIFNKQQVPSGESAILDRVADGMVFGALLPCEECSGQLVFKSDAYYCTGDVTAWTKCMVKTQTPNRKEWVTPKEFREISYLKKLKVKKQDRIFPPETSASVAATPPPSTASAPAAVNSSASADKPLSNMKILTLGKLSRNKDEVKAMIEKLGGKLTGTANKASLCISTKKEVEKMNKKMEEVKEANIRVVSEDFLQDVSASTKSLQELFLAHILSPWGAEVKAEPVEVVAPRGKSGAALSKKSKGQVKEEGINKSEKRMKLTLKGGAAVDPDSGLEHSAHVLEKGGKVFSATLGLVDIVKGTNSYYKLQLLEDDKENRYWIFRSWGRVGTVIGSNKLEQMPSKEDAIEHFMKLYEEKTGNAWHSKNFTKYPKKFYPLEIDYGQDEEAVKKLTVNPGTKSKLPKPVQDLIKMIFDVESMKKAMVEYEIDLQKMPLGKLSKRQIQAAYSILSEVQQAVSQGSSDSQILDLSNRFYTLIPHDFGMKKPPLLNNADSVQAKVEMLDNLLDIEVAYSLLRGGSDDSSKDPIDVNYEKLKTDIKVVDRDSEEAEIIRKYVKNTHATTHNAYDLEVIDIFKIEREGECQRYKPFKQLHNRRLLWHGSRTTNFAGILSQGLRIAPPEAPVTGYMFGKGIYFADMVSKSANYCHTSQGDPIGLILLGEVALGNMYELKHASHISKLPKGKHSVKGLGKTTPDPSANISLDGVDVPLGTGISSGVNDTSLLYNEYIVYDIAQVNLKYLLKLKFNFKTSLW
row,Compound,pIC50
1,O=c1[nH]c2c(c3ccccc13)CN(S(=O)(=O)CCN1CCC(N3CCCC3)CC1)CC2 [Compound 24a],7.10

# Same assay, conditions: approximate values, PARP enzyme assay; read-out: IC50
row,Compound,pIC50
1,O=c1[nH]c2c(c3ccccc13)CN(Cc1ccccc1)CC2 [Compound 6a],6.47
2,O=c1[nH]c2c(c3ccc(F)cc13)CN(Cc1ccccc1)CC2 [Compound 6b],6.74
3,O=c1[nH]c2c(c3ccccc13)CCN(Cc1ccccc1)C2 [Compound 11],6.66
4,O=C(CCCl)N1CCc2[nH]c(=O)c3ccccc3c2C1 [Compound 14a],6.73
5,CN(C)CCCN(C)CC(=O)N1CCc2[nH]c(=O)c3ccccc3c2C1 [Compound 16a],6.37
6,CN1CCN(CC(=O)N2CCc3[nH]c(=O)c4ccccc4c3C2)CC1 [Compound 16b],5.78
7,CC(O)CNCC(=O)N1CCc2[nH]c(=O)c3ccccc3c2C1 (centres unmarked) [Compound 16c],6.38
8,CN(C)CCN(C)CC(=O)N1CCc2[nH]c(=O)c3ccccc3c2C1 [Compound 16d],6.01
9,O=C(CN1CCCCC1CO)N1CCc2[nH]c(=O)c3ccccc3c2C1 (centres unmarked) [Compound 16e],6.07
10,O=C(CN1CCN(CCO)CC1)N1CCc2[nH]c(=O)c3ccccc3c2C1 [Compound 16f],4.88
11,CN(C)CC(=O)N1CCc2[nH]c(=O)c3ccccc3c2C1 [Compound 16g],6.19
12,O=C(CN1CCc2ccccc2C1)N1CCc2[nH]c(=O)c3ccccc3c2C1 [Compound 16h],5.80
13,O=C(CNC[C@H](O)CO)N1CCc2[nH]c(=O)c3ccccc3c2C1 [Compound 16i],6.18
14,CCOC(=O)C1CCN(CC(=O)N2CCc3[nH]c(=O)c4ccccc4c3C2)CC1 [Compound 16k],6.87
15,O=C1CCN(CC(=O)N2CCc3[nH]c(=O)c4ccccc4c3C2)CC1 [Compound 16l],6.53
16,O=C(CN1CC=CCC1)N1CCc2[nH]c(=O)c3ccccc3c2C1 [Compound 16m],6.67
17,CN(C)CCCN(C)CCC(=O)N1CCc2[nH]c(=O)c3ccccc3c2C1 [Compound 17a],6.55
18,CN1CCN(CCC(=O)N2CCc3[nH]c(=O)c4ccccc4c3C2)CC1 [Compound 17b],5.74
19,CC(O)CNCCC(=O)N1CCc2[nH]c(=O)c3ccccc3c2C1 (centres unmarked) [Compound 17c],5.66
20,CN(CCC(=O)N1CCc2[nH]c(=O)c3ccccc3c2C1)CC(=O)OC(C)(C)C [Compound 17d],6.74

row,Compound,pIC50
1,CN(C)CCN(C)CCC(=O)N1CCc2[nH]c(=O)c3ccccc3c2C1 [Compound 17e],6.41
2,O=C(CCN1CCCCC1CO)N1CCc2[nH]c(=O)c3ccccc3c2C1 (centres unmarked) [Compound 17f],6.36
3,O=C(CCN1CCc2ccccc2C1)N1CCc2[nH]c(=O)c3ccccc3c2C1 [Compound 17g],6.61
4,O=C(CCNC[C@H](O)CO)N1CCc2[nH]c(=O)c3ccccc3c2C1 [Compound 17h],6.60
5,O=C(CCN1CCCCC1)N1CCc2nc(O)c3ccccc3c2C1 [Compound 17i],7.15
6,CCOC(=O)C1CCN(CCC(=O)N2CCc3[nH]c(=O)c4ccccc4c3C2)CC1 [Compound 17j],6.25
7,O=C1CCN(CCC(=O)N2CCc3[nH]c(=O)c4ccccc4c3C2)CC1 [Compound 17k],6.95
8,O=C(CCNCCc1ccccc1F)N1CCc2[nH]c(=O)c3ccccc3c2C1 [Compound 17m],6.79
9,CN(C)CCCN(C)CCCC(=O)N1CCc2[nH]c(=O)c3ccccc3c2C1 [Compound 18a],6.73
10,CN1CCN(CCCC(=O)N2CCc3[nH]c(=O)c4ccccc4c3C2)CC1 [Compound 18b],6.62
11,CC(O)CNCCCC(=O)N1CCc2[nH]c(=O)c3ccccc3c2C1 (centres unmarked) [Compound 18c],7.06
12,CN(CCCC(=O)N1CCc2[nH]c(=O)c3ccccc3c2C1)CC(=O)OC(C)(C)C [Compound 18d],6.31
13,CN(C)CCN(C)CCCC(=O)N1CCc2[nH]c(=O)c3ccccc3c2C1 [Compound 18e],6.31
14,O=C(CCCN1CCCCC1CO)N1CCc2[nH]c(=O)c3ccccc3c2C1 (centres unmarked) [Compound 18f],6.17
15,O=C(CCCN1CCN(CCO)CC1)N1CCc2[nH]c(=O)c3ccccc3c2C1 [Compound 18g],6.32
16,CN(C)CCCC(=O)N1CCc2[nH]c(=O)c3ccccc3c2C1 [Compound 18h],6.82
17,O=C(CCCN1CCCCC1)N1CCc2[nH]c(=O)c3ccccc3c2C1 [Compound 18j],6.34
18,CCOC(=O)C1CCN(CCCC(=O)N2CCc3[nH]c(=O)c4ccccc4c3C2)CC1 [Compound 18k],6.32
19,O=C1CCN(CCCC(=O)N2CCc3[nH]c(=O)c4ccccc4c3C2)CC1 [Compound 18l],6.60
20,O=C(CCCN1CC=CCC1)N1CCc2[nH]c(=O)c3ccccc3c2C1 [Compound 18m],6.39

row,Compound,pIC50
1,O=C(CCCNCCc1ccccc1F)N1CCc2[nH]c(=O)c3ccccc3c2C1 [Compound 18n],5.88
2,O=C(CCCNC[C@@H]1CCCO1)N1CCc2[nH]c(=O)c3ccccc3c2C1 [Compound 18o],6.49
3,O=C(CCCNC[C@H]1CCCO1)N1CCc2[nH]c(=O)c3ccccc3c2C1 [Compound 18p],6.78
4,C[C@H](CO)NCCCC(=O)N1CCc2[nH]c(=O)c3ccccc3c2C1 [Compound 18q],6.60
5,O=C(CCCNCC(O)c1ccccc1)N1CCc2[nH]c(=O)c3ccccc3c2C1 (centres unmarked) [Compound 18r],6.45
6,O=C(CCCNCC1(O)CCCCC1)N1CCc2[nH]c(=O)c3ccccc3c2C1 [Compound 18s],6.81
7,NCC(=O)N1CCc2[nH]c(=O)c3ccccc3c2C1 [Compound 21a],7.05
8,CC(C)C(N)C(=O)N1CCc2[nH]c(=O)c3ccccc3c2C1 (centres unmarked) [Compound 21c],6.16
9,O=C(C1CCCN1)N1CCc2[nH]c(=O)c3ccccc3c2C1 (centres unmarked) [Compound 21d],6.57
10,NC(Cc1ccccc1)C(=O)N1CCc2[nH]c(=O)c3ccccc3c2C1 (centres unmarked) [Compound 21i],5.91
11,NC(Cc1ccc(O)cc1)C(=O)N1CCc2[nH]c(=O)c3ccccc3c2C1 (centres unmarked) [Compound 21j],6.42
12,N[C@H](Cc1ccc(O)cc1)C(=O)N1CCc2[nH]c(=O)c3ccccc3c2C1 [Compound 21k],5.43
13,NCCC(=O)N1CCc2[nH]c(=O)c3ccccc3c2C1 [Compound 21l],7.21
14,CC(=O)N1CCc2[nH]c(=O)c3ccccc3c2C1 [Compound 21n],7.24
15,O=C(NCCN1CCCCC1)N1CCc2[nH]c(=O)c3ccccc3c2C1 [Compound 21o],6.98
16,O=C(c1cccc(CCl)c1)N1CCc2c([nH]c(=O)c3ccccc23)C1 [Compound 21p],6.10
17,O=C(O)c1cccc(S(=O)(=O)N2CCc3[nH]c(=O)c4ccccc4c3C2)c1 [Compound 22a],7.44
18,C=CS(=O)(=O)N1CCc2[nH]c(=O)c3ccccc3c2C1 [Compound 22c],6.53
19,CN1CCN(C(=O)c2cccc(S(=O)(=O)N3CCc4[nH]c(=O)c5ccccc5c4C3)c2)CC1 [Compound 23a],6.36
20,O=C(c1cccc(S(=O)(=O)N2CCc3[nH]c(=O)c4ccccc4c3C2)c1)N1CCC(N2CCCC2)CC1 [Compound 23b],6.52

# Test system: not given
# Assay: not given
# Details: not given
row,Compound,melting point [°C]
1,"O=C1NCN2c3ccccc3Sc3cccc1c32 [Example 1, 1,2-Dihydro-7-thia-2,11b-diaza-benzo[de]anthracen-3-one]",187 to 192
2,"O=C1NCN2c3ccc(S(=O)(=O)NCCN4CCOCC4)cc3Sc3cccc1c32 [Example 3, 3-Oxo-2,3-dihydro-1H-7-thia-2,11b-diaza-benzo[de]anthracene-9-(N2-morpholin-4-yl-ethyl)sulfonamide]",227 to 228
3,"O=C1NCN2c3ccc(S(=O)(=O)NCCN4CCCCC4)cc3Sc3cccc1c32 [Example 4, 3-Oxo-2,3-dihydro-1H-7-thia-2,11b-diaza-benzo[de]anthracene-9-(N-2-piperidin-1-yl-ethyl)-sulfonamide]",170 to 172
4,"O=C1NCN2c3ccc([N+](=O)[O-])cc3Sc3cccc1c32 [Example 5, 9-Nitro-1,2-dihydro-7-thia-2,11b-diaza-benzo[de]anthracen-3-one]",205 to 208
5,"O=C1NCN2c3ccccc3Oc3cccc1c32 [Example 6, 1,2-Dihydro-7-oxa-2,11b-diaza-benzo[de]anthracen-3-one]",> 300
6,"O=C1NCn2c3ccccc3c(=O)c3cccc1c32 [Example 8, 1,2-Dihydro-2,11b-diaza-benzo[de]anthracene-3,7-dione]",250 to 255
7,O=C1NC(c2ccccc2)n2c3ccccc3c(=O)c3cccc1c32 (centres unmarked) [Example 9],288 to 292
